Measured values reported in the NIST ThermoML archive (doi:10.1021/je2010209).

Assay: xn = mol fraction of the nth substance listed
Details: 101 kPa, Liquid; for speed of sound: Sing-around technique in a fixed-path interferometer; for mass density: Vibrating tube method

COCCOCCO [2-(2-methoxyethoxy)ethanol] + CCCCn1cc[n+](C)c1.F[B-](F)(F)F
Details	mass density, 288.15 K [kg/m3]	mass density, 293.15 K [kg/m3]	mass density, 298.15 K [kg/m3]	speed of sound, 288.15 K [m/s]	speed of sound, 293.15 K [m/s]	speed of sound, 298.15 K [m/s]	speed of sound, 303.15 K [m/s]
x2 = 0	1024.6	1020.2	1015.79	1451	1434	1416	1399
x2 = 0.0308	1035.12	1030.69	1026.51	1461	1445	1428	1411
x2 = 0.1053	1059.04	1054.73	1050.61	1490	1473	1457	1441
x2 = 0.2065	1086.98	1082.85	1078.49	1514	1499	1483	1468
x2 = 0.3137	1110.84	1106.71	1102.51	1533	1517	1503	1489
x2 = 0.4002	1126.77	1122.56	1118.58	1544	1531	1518	1504
x2 = 0.5035	1143.12	1138.99	1135.22	1559	1546	1533	1519
x2 = 0.6083	1158.14	1154.16	1150.52	1568	1555	1543	1530
x2 = 0.7023	1170.82	1167.07	1163.46	1575	1563	1551	1539
x2 = 0.8291	1187.12	1183.25	1180	1580	1572	1560	1546
x2 = 0.9381	1199.91	1196.01	1192.92	1583	1574	1563	1552
